Measured values as given in patent publication US20240000950A1, “THERAPEUTIC CURE-PRO COMPOUNDS FOR TARGETED DEGRADATION OF BET DOMAIN PROTEINS, AND METHODS OF MAKING AND USING THEM” (CORNELL UNIVERSITY, priority 2020, published 2024).
“Also recorded” adds a separate entry of the source.

Key:
[1] = target: BRD4 (Homo sapiens, UniProt O60885); assay: Summary of E3 ligase directed degradation of BRD4, estimated from Western Blot or WES (Tables 1-6); format: cell-based; set-up: endogenous in cells; host or cells: HeLa, MCF7 or HCT116; conditions: for Degradation of BRD4, combination with CRBN ligand [drawing 422]: CRBN ligand drawn as drawing 422 (by the text apparently 8066); for Degradation of BRD4, combination with CRBN ligand [drawing 397]: aromatic 1,2-diol- or hindered cis-1,2-diol-containing CRBN ligand drawn as drawing 397 (by the text apparently 8046); for Degradation of BRD4, combination with MDM2 ligand [drawing 431]: aromatic 1,2-diol-containing MDM2 ligand drawn as drawing 431 (by the text apparently 8314); for Degradation of BRD4, combination with VHL ligand [drawing 442]: Table 3, aromatic 1,2-diol-containing VHL ligand drawn as drawing 442 (by the text apparently 8305)
Procedure: HeLa, MCF7, or HCT116 cells (2.5-3×10^6) were treated for 24 hours with the indicated compounds solubilized in DMSO. The cells were washed in ice-cold PBS and were then lysed in RIPA lysis buffer (150 mM NaCl, 5 mM EDTA, 1% NP-40, 0.5% sodium deoxycholate, 0.1% SDS, 50 mM Tris, pH 8.0) with Roche protease inhibitor complete cocktail and phosphatase inhibitors (10 mM sodium fluoride, 10 mM sodium pyrophosphate, 1 mM sodium orthovanadate and 20 mM β-glycerophosphate). The total protein concentrations were determined by Bradford Protein Assay and 10-20 μg of protein was loaded onto 4-15% Tris-Glycine gradient gels (Biorad). After standard gel electrophoresis, the separated proteins were transferred to PVDF membrane by wet transfer. The immunoblots were then blocked for 1 hour in 5% skim milk in TBST or 5% BSA in TBST, according to manufacturer's instructions, before an overnight incubation at 4° C. with indicated antibodies and membranes. Membranes were then incubated with the appropriate horseradish peroxidase-conjugated secondary antibodies (1:5,000 dilution) for 1 h at room temperature and the bands were visualized using the Clarity Max Western ECL Substrate (Biorad) and the ChemiDoc Imaging System (Biorad). Signal was detected with ECL Western Blotting Substrate (Pierce) and X-ray film processed with a Konica SRX-101 X-ray film processor or captured by Bio-Rad's Chemidoc Imaging system.
WES Simple analysis was performed on WES system (ProteinSimple-Biotechne) according to the manufacturer's instructions. Total protein concentrations of cell lysates were determined by the Pierce BCA kit (Thermo Fisher). 3 μL of 0.3 μg/uL of the protein lysate was loaded onto a 12- to 230-kDa WES assay plate (ProteinSimple) where 300 nL sample was withdrawn through a capillary, subjected to electrophoretic separation of proteins by size, and followed by the simultaneous, HRP-based detection of proteins using the Anti-Rabbit Detection Module (Proteinsimple: #DM-001). The electropherograms were checked then the automatic peak detection was manually corrected if it was required.
A black check mark indicates efficacy of 30% to 70% or higher protein degradation.

[2] = tested on: MV-4-11 cells; assay: CellTiter-Glo cell viability, MV-4-11 cells; format: cell-based
Procedure: All cell lines were purchased from ATCC or DSMZ and grown at 37° C. with 5% C02. Human HeLa cells were cultured in complete growth medium (Dulbecco's modified Eagle's medium (DMEM) supplemented with 10% FBS); MCF7 cells were cultured in complete growth medium (Dulbecco's modified Eagle's medium (DMEM) supplemented with 10% FBS and 0.01 mg/ml human recombinant insulin (Sigma Aldrich); Namalwa and MOLM-13 cells were cultured in complete growth medium (RPMI 1640 medium supplemented with 10% FBS); MV-4-11 were cultured in complete growth medium (Iscove's Modified Dulbecco's medium, supplemented with 10% FBS); HCT116 cells were cultured in complete growth medium (McCoy's 5a Medium supplemented with 10% FBS). For cellular degradation of BRD4 studies, cells were seeded in a 12-well plate at 70-80% confluency, allowed to attach overnight, and incubated with the indicated compounds for the indicated time. When indicated, a 15-minute pretreatment with 10 μM pomalidomide, 10 μM VHL298, 10 μM Nutlin3a, 1 μM MG-132 or 1 μM Carfilzomib was performed before the addition of CURE-PROs. For washout studies, after CURE-PRO treatment, media was aspirated and incubated with complete medium for the indicated time before lysis.
CellTiter-Glo® 2.0 Cell Viability Assay (Promega) was carried out following the manufacturer's recommendations. Cells were seeded at a density of 1000 cells/well in a white 96 well plates (Corning, #3917) in a total volume of 100 μl with respective monomers, combinations of BRD ligands together with E3 ligase ligands or vehicle control treatment. After a 72 h incubation, 100 ul of the CellTiter-Glo® substrate was added per well and luminescence was read on a Spectramax M5 (Molecular Devices). Dose-response curves were generated using Graphpad Prism software.
MV-4-11 cells (5×104) were treated for 24 hours with the sample compounds solubilized in DMSO. The compounds were added at 1 nM-100 μM each. Cellular viability was determined using the CellTiter-Glo® Luminescent Cell Viability Assay (Promega) described above. FIGS. 19-22 depict the CURE-PRO-mediated loss of cellular viability for BRD monomers (JQ1 derivatives comprising of catechol linkers), and CRBN ligand, 8049 (pomalidomide derivatives comprising boronic acid linkers) combined in a 1:1 ratio.
MV-4-11 cells (1×104) were treated for 72 hours with the compounds solubilized in DMSO. Compounds were added at 10 nM-100 μM each. Cellular viability was determined using the CellTiter-Glo® Luminescent Cell Viability Assay (Promega) described above. FIGS. 47-54 depict the CURE-PRO-mediated loss of cellular viability for BRD monomers (JQ1 derivatives comprising of boronic acid linkers), and CRBN ligands, 8046, 8047, and 8066 (pomalidomide derivatives comprising diol linkers) combined in a 1:1 ratio.

[3] = 72 h, 10 nM-100 μM, cotreated 1:1 with each of CRBN ligands 8066, 8046 and 8047, compared to monomers alone
[4] = 1 nM-100 μM, cotreated 1:1 with CRBN ligand 8049

| Compound | Degradation of BRD4, combination with CRBN ligand [drawing 422] ([1]; Table 1) | Degradation of BRD4, combination with CRBN ligand [drawing 397] ([1]; Table 1) | toxicity / loss of cellular viability (CellTiter-Glo) [2, 3] | further results |
| --- | --- | --- | --- | --- |
| CCNC(=O)C[C@@H]1N=C(c2ccc(Cl)cc2)c2cc(OCCCCC(=O)Nc3cccc(B(O)O)c3)ccc2-n2c(C)nnc21 [BRD-E20, (3-(5-(((4S)-6-(4-chlorophenyl)-4-(2-(ethylamino)-2-oxoethyl)-1-methyl-4H-benzo[f][1,2,4]triazolo[4,3-a][1,4]diazepin-8-yl)oxy)pentanamido)phenyl)boronic acid] | ✓ (A black check mark indicates efficacy of 30% to 70% or higher protein degradation) | ✓ (A black check mark indicates efficacy of 30% to 70% or higher protein degradation) | reduced viability; also recorded: increased toxicity | Degradation of BRD4, combination with MDM2 ligand [drawing 430] ([1]; Table 2, aromatic 1,2-diol-containing MDM2 ligand drawn as drawing 430 (by the text apparently 8313)): ✓ (A black check mark indicates efficacy of 30% to 70% or higher protein degradation); Degradation of BRD4, combination with MDM2 ligand [drawing 431] ([1]; Table 2): ✓ (A black check mark indicates efficacy of 30% to 70% or higher protein degradation); Degradation of BRD4, combination with VHL ligand [drawing 442] [1]: ✓ (A black check mark indicates efficacy of 30% to 70% or higher protein degradation) |
| COc1ccc2c(c1)C(c1ccc(Cl)cc1)=N[C@@H](CC(=O)NCCNC(=O)/C=C/c1ccc(B(O)O)cc1)c1nnc(C)n1-2 [BRD-E29, (4-((E)-3-((2-(2-((4S)-6-(4-chlorophenyl)-8-methoxy-1-methyl-4H-benzo[f][1,2,4]triazolo[4,3-a][1,4]diazepin-4-yl)acetamido)ethyl)amino)-3-oxoprop-1-en-1-yl)phenyl)boronic acid] | ✓ (A black check mark indicates efficacy of 30% to 70% or higher protein degradation) | ✓ (A black check mark indicates efficacy of 30% to 70% or higher protein degradation) | reduced viability; also recorded: increased toxicity | Degradation of BRD4, combination with CRBN ligand [drawing 421] ([1]; Table 1, CRBN ligand drawn as drawing 421 (by the text apparently 8047)): ✓ (A black check mark indicates efficacy of 30% to 70% or higher protein degradation) |
| COc1ccc2c(c1)C(c1ccc(Cl)cc1)=N[C@@H](CC(=O)NCCOCCOCCNC(=O)c1cccc(B(O)O)c1)c1nnc(C)n1-2 [BRD-E46] | ✓ (A black check mark indicates efficacy of 30% to 70% or higher protein degradation) | ✓ (A black check mark indicates efficacy of 30% to 70% or higher protein degradation) | reduced viability; also recorded: increased toxicity |  |
| COc1ccc2c(c1)C(c1ccc(Cl)cc1)=N[C@@H](CC(=O)Nc1cccc(B(O)O)c1)c1nnc(C)n1-2 [BRD-E73, (3-(2-((4S)-6-(4-chlorophenyl)-8-methoxy-1-methyl-4H-benzo[f][1,2,4]triazolo[4,3-a][1,4]diazepin-4-yl)acetamido)phenyl)boronic acid] |  |  | reduced viability; also recorded: increased toxicity |  |
| CCNC(=O)C[C@@H]1N=C(c2ccc(Cl)cc2)c2cc(Sc3ccc(B(O)O)cc3)ccc2-n2c(C)nnc21 [BRD-E75, (4-(((4S)-6-(4-chlorophenyl)-4-(2-(ethylamino)-2-oxoethyl)-1-methyl-4H-benzo[f][1,2,4]triazolo[4,3-a][1,4]diazepin-8-yl)thio)phenyl)boronic acid] |  |  | reduced viability; also recorded: increased toxicity | Degradation of BRD4, combination with MDM2 ligand [drawing 431] ([1]; Table 2): ✓ (A black check mark indicates efficacy of 30% to 70% or higher protein degradation) |
| CCNC(=O)C[C@@H]1N=C(c2ccc(Cl)cc2)c2cc(Sc3cccc(B(O)O)c3)ccc2-n2c(C)nnc21 [BRD-E76] |  | ✓ (A black check mark indicates efficacy of 30% to 70% or higher protein degradation) | reduced viability; also recorded: increased toxicity |  |
| CCNC(=O)C[C@@H]1N=C(c2ccc(Cl)cc2)c2cc(OCCCCCCCNC(=O)c3ccc(B(O)O)cc3)ccc2-n2c(C)nnc21 [BRD-E78] |  |  | reduced viability; also recorded: increased toxicity | Degradation of BRD4, combination with VHL ligand [drawing 442] [1]: ✓ (A black check mark indicates efficacy of 30% to 70% or higher protein degradation) |
| COc1ccc2c(c1)C(c1ccc(Cl)cc1)=N[C@@H](CC(=O)NCCCCCNC(=O)c1cccc(O)c1O)c1nnc(C)n1-2 [BRD-N8, N-(5-(2-((4S)-6-(4-chlorophenyl)-8-methoxy-1-methyl-4H-benzo[f][1,2,4]triazolo[4,3-a][1,4]diazepin-4-yl)acetamido)pentyl)-2,3-dihydroxybenzamide] |  |  |  | toxicity / loss of cellular viability (CellTiter-Glo) [2, 4]: a concentration-dependent loss in cellular viability was observed; also recorded: increased toxicity |
| COc1ccc2c(c1)C(c1ccc(Cl)cc1)=N[C@@H](CC(=O)NCCc1ccc(O)c(O)c1)c1nnc(C)n1-2 [BRD-N10, (S)-2-(6-(4-chlorophenyl)-8-methoxy-1-methyl-4H-benzo[f][1,2,4]triazolo[4,3-a][1,4]diazepin-4-yl)-N-(3,4-dihydroxyphenethyl)acetamide] |  |  |  | Degradation of BRD4, combination with CRBN ligand [drawing 457] ([1]; Table 4, aryl-boronic acid-containing CRBN ligand drawn as drawing 457 (by the text apparently 8048)): ✓ (A black check mark indicates efficacy of 30% to 70% or higher protein degradation); Degradation of BRD4, combination with CRBN ligand [drawing 458] ([1]; Table 4, aryl-boronic acid-containing CRBN ligand drawn as drawing 458 (by the text apparently 8049)): ✓ (A black check mark indicates efficacy of 30% to 70% or higher protein degradation); Degradation of BRD4, combination with MDM2 ligand [drawing 463] ([1]; Table 5, aryl-boronic acid-containing MDM2 ligand drawn as drawing 463 (apparently 8310)): ✓ (A black check mark indicates efficacy of 30% to 70% or higher protein degradation); toxicity / loss of cellular viability (CellTiter-Glo) [2, 4]: a concentration-dependent loss in cellular viability was observed; also recorded: increased toxicity |
| O=C1CCC(N2C(=O)c3cccc(CNC(=O)c4cccc(B(O)O)c4)c3C2=O)C(=O)N1 (centres unmarked) [compound 8049] |  |  |  | loss of cellular viability (CellTiter-Glo) ([2]; 1 nM-100 μM, monomer alone): little loss of viability was observed |
